Measured values reported in US20240317689A1, “POTASSIUM CHANNEL MODULATOR, COMPOSITION AND APPLICATION” (NEUSHEN THERAPEUTICS (SHANGHAI) CO., LTD, priority 2021, published 2024).

The molecules below were run against T1, KCNQ2/3 potassium ion channel (Homo sapiens, UniProt O43525+O43526) (assay: KCNQ2/3 potassium ion channel activation assay (whole-cell patch clamp, hKCNQ-CHO cells)). Conditions: test concentration 0.05 μM, read-out: Enhancment % (current enhancement multiple).
T1 construct: expressed in transfected cells; host or cells: CHO cells (hKCNQ-CHO)
Format: cell-based
Experimental: Example 64: KCNQ2/3 Potassium Ion Channel Activation Assay
hKCNQ-CHO cells were cultured at 37° C. in a humidified environment of 5% CO2.
• 2.1. Extracellular fluid (mM): NaCl 145, KCl 4, CaCl2 2, MgCl2 1, Glucose 10, HEPES 10. The pH value of the extracellular fluid was adjusted to 7.4 with NaOH, and the osmotic pressure was adjusted to about 295 mOsm. • 2.2. Intracellular fluid (mM (mmol/L)): KOH 31.25, KCl 120, EGTA 10, MgCl2 1.75, CaCl2 5.374, HEPES 10, Na-ATP 4. The pH value of the intracellular fluid was adjusted to 7.4 with HCl, and the osmotic pressure was adjusted to about 285 mOsm. • 2.3. The extracellular fluid should be prepared once a week, and the intracellular fluid should be stored at −20° C. after preparation.
The model positive reference compound Retigabine (RTG) was dissolved with 100% DMSO and configured as a 10 mM working solution. The test compounds were dissolved with 100% DMSO and configured as a 10 mM working solution. The final concentration of DMSO in the test solution should be less than 0.3%.
Whole-cell patch clamp was performed at room temperature. The electrical signals recorded with the EPC 10 USB amplifier (HEKA Elektronik, Germany) were filtered by a 3 kHz low-pass filter, and finally recorded in PatchMaster 2×90.5 software (HEKA Elektronik, Germany). At this step, the quality control standard was that the cell high-resistance sealing was greater than 500 MOhms, and the detection current was greater than 0.4 nA.
The recording electrodes were pulled out and polished with a vertical puller (NARISHIGE PC-10, Japan) using a borosilicate glass capillary (GC150tF-10, Harvard Apparatus Co., UK). At this step, the quality control standard was that the electrode resistance was between 2 MΩ and 5 MΩ.
During the recording process of the whole-cell patch clamp, a continuous perfusion system (BT100-2J, LongerPump, China) was used to continuously perfuse the extracellular fluid. The perfusion system was installed on the stage of an upright microscope (FN-S2N, Nikon, Japan), and the perfusion head was manually positioned under the microscope.
The voltage command for detecting the amplitude of hKCNQ current was as follows: the cell stepped from the clamping potential of −80 mV to −30 mV, and held for 1500 ms; and then the clamping voltage was lowered to −120 my and held for 500 ms; finally, the voltage returned to the clamping potential of −80 mV. The detection voltage command was repeated every 15,000 milliseconds, and the command was continuously executed during the compound test. The quality control standard for compound action stability was the current amplitude under 5 consecutive voltage commands, and the coefficient of variation of the current amplitude was <5%.
Data analysis was performed using PatchMaster 2×90.5 software (HEKA Elektronik, Germany) and Excel 2013 (Microsoft, USA) software. For each cell's patch clamp recording, the amplitude of the hKCNQ channel current (Itest) corresponding to the test compound concentration should be obtained. The enhanced channel current was obtained by subtracting the cell's original channel current (Icontrol) from Itest and dividing by Icontrol to obtain the current enhancement multiple. That is, the current enhancement multiple (Enhancment %)=(Itest −Icontrol)/Icontrol[…].

activation at 0.05 µM | SMILES
< 50% | CCOc1ccc2c(c1)CCCN(c1cc(C)c(NC(=O)CC(C)(C)C)c(C)c1)C2 [Compound 002, N-(4-(7-ethoxy-1,3,4,5-tetrahydro-2H-benzo[c]azepin-2-yl)-2,6-dimethylphenyl)-3,3-dimethylbutanamide]
50 to 100% | COc1ccc2c(c1)CCCN(c1cc(C)c(NC(=O)CC(C)(C)C)c(C)c1)C2 [Compound 001, N-(4-(7-methoxy-1,3,4,5-tetrahydro-2H-benzo[c]azepin-2-yl)-2,6-dimethylphenyl)-3,3-dimethylbutanamide]

More lines, now with the values behind:

SMILES | activation at 0.05 µM
Cc1cc(N2CCC(C)(C)c3ccccc3C2)cc(C)c1NC(=O)CC(C)(C)C [Compound 017, N-(4-(5,5-dimethyl-1,3,4,5-tetrahydro-2H-benzo[c]azepin-2-yl)-2,6-dimethylphenyl)-3,3-dimethylbutanamide] | < 50%
Cc1cc(N2CC=Cc3cc(F)ccc3C2)cc(C)c1NC(=O)CC(C)(C)C [Compound 027, N-(4-(7-fluoro-1,3-dihydro-2H-benzo[c]azepin-2-yl)-2,6-dimethylphenyl)-3,3-dimethylbutanamide] | < 50%

Same assay, conditions: test concentration 3 μM, numeric value

Enhancment % (activation activity on KCNQ2/3 potassium ion channel) | SMILES
41.39% | Cc1cc(N2CCCc3cc(F)ccc3C2)cc(C)c1NC(=O)CC(C)(C)C [a, reference compound]

Same assay, conditions: test concentration 3 μM, read-out: Enhancment % (current enhancement multiple)

activation at 3 µM | SMILES
50 to 100% | CCOc1ccc2c(c1)CCCN(c1cc(C)c(NC(=O)CC(C)(C)C)c(C)c1)C2 [Compound 002, N-(4-(7-ethoxy-1,3,4,5-tetrahydro-2H-benzo[c]azepin-2-yl)-2,6-dimethylphenyl)-3,3-dimethylbutanamide]
50 to 100% | COc1ccc2c(c1)CCCN(c1cc(C)c(NC(=O)CC(C)(C)C)c(C)c1)C2 [Compound 001, N-(4-(7-methoxy-1,3,4,5-tetrahydro-2H-benzo[c]azepin-2-yl)-2,6-dimethylphenyl)-3,3-dimethylbutanamide]
> 100% | Cc1cc(N2CCCc3cc(OC4CC4)c(F)cc3C2)cc(C)c1NC(=O)CC(C)(C)C [Compound 042, N-(4-(7-cyclopropoxy-8-fluoro-1,3,4,5-tetrahydro-2H-benzo[c]azepin-2-yl)-2,6-dimethylphenyl)-3,3-dimethylbutanamide]
> 100% | Cc1cc(N2CCCc3cc(OC4CCCCC4)ccc3C2)cc(C)c1NC(=O)CC(C)(C)C [Compound 012, N-(4-(7-(cyclohexyloxy)-1,3,4,5-tetrahydro-2H-benzo[c]azepin-2-yl)-2,6-dimethylphenyl)-3,3-dimethylbutanamide]
> 100% | Cc1cc(N2CCCc3cc(OC4CCCC4)c(F)cc3C2)cc(C)c1NC(=O)CC(C)(C)C [Compound 044, N-(4-(7-(cyclopentyloxy)-8-fluoro-1,3,4,5-tetrahydro-2H-benzo[c]azepin-2-yl)-2,6-dimethylphenyl)-3,3-dimethylbutanamide]
> 100% | Cc1cc(N2CCCc3cc(OC4CCCCC4)c(F)cc3C2)cc(C)c1NC(=O)CC(C)(C)C [Compound 045, N-(4-(7-(cyclohexyloxy)-8-fluoro-1,3,4,5-tetrahydro-2H-benzo[c]azepin-2-yl)-2,6-dimethylphenyl)-3,3-dimethylbutanamide]
> 100% | COc1cc2c(cc1F)CN(c1cc(C)c(NC(=O)CC(C)(C)C)c(C)c1)CCC2 [Compound 038, N-(4-(8-fluoro-7-methoxy-1,3,4,5-tetrahydro-2H-benzo[c]azepin-2-yl)-2,6-dimethylphenyl)-3,3-dimethylbutanamide]

Second part, the molecule before the results:

SMILES | activation at 3 µM
Cc1cc(N2CCCc3cc(OC/C=C/C(F)(F)F)ccc3C2)cc(C)c1NC(=O)CC(C)(C)C [Compound 050, (E)-N-(2,6-dimethyl-4-(7-((4,4,4-trifluorobut-2-en-1-yl)oxy)-1,3,4,5-tetrahydro-2H-benzo[c]azepin-2-yl)phenyl)-3,3-dimethylbutanamide] | > 100%
CC[C@@H](C)Oc1cc2c(cc1F)CN(c1cc(C)c(NC(=O)CC(C)(C)C)c(C)c1)CCC2 [Compound 041, (R)—N-(4-(7-(sec-butoxy)-8-fluoro-1,3,4,5-tetrahydro-2H-benzo[c]azepin-2-yl)-2,6-dimethylphenyl)-3,3-dimethylbutanamide] | > 100%
COC(Oc1ccc2c(c1)CCCN(c1cc(C)c(NC(=O)CC(C)(C)C)c(C)c1)C2)C(F)(F)F (centres unmarked) [Compound 052, N-(2,6-dimethyl-4-(7-(2,2,2-trifluoro-1-methoxyethoxy)-1,3,4,5-tetrahydro-2H-benzo[c]azepin-2-yl)phenyl)-3,3-dimethylbutanamide] | > 100%
Cc1cc(N2CCCc3cc(OC45CC(C(F)F)(C4)C5)ccc3C2)cc(C)c1NC(=O)CC(C)(C)C [Compound 051, N-(4-(7-((3-(difluoromethyl)bicyclo[1.1.1]pentan-1-yl)oxy)-1,3,4,5-tetrahydro-2H-benzo[c]azepin-2-yl)-2,6-dimethylphenyl)-3,3-dimethylbutanamide] | > 100%
Cc1cc(N2CC=Cc3cc(F)c(F)cc3C2)cc(C)c1NC(=O)CC(C)(C)C [Compound 046, N-(4-(7,8-difluoro-1,3-dihydro-2H-benzo[c]azepin-2-yl)-2,6-dimethylphenyl)-3,3-dimethylbutanamide] | > 100%
Cc1cc(N2CCC(C)(C)c3ccccc3C2)cc(C)c1NC(=O)CC(C)(C)C [Compound 017, N-(4-(5,5-dimethyl-1,3,4,5-tetrahydro-2H-benzo[c]azepin-2-yl)-2,6-dimethylphenyl)-3,3-dimethylbutanamide] | 50 to 100%
Cc1cc(N2CC=Cc3cc(F)ccc3C2)cc(C)c1NC(=O)CC(C)(C)C [Compound 027, N-(4-(7-fluoro-1,3-dihydro-2H-benzo[c]azepin-2-yl)-2,6-dimethylphenyl)-3,3-dimethylbutanamide] | > 100%
Cc1cc(N2CCCc3cc(OCCCC(F)(F)F)ccc3C2)cc(C)c1NC(=O)CC(C)(C)C [Compound 060, N-(2,6-dimethyl-4-(7-(4,4,4-trifluorobutoxy)-1,3,4,5-tetrahydro-2H-benzo[c]azepin-2-yl)phenyl)-3,3-dimethylbutanamide] | > 100%
Cc1cc(N2CCCc3cc(OC(C(F)(F)F)C(F)(F)F)ccc3C2)cc(C)c1NC(=O)CC(C)(C)C [Compound 055, N-(4-(7-((1,1,1,3,3,3-hexafluoropropan-2-yl)oxy)-1,3,4,5-tetrahydro-2H-benzo[c]azepin-2-yl)-2,6-dimethylphenyl)-3,3-dimethylbutanamide] | > 100%
Cc1cc(N2CCCc3cc(F)ccc3C2)c(Cl)c(C)c1NC(=O)CC(C)(C)C [Compound 031, N-(3-chloro-4-(7-fluoro-1,3,4,5-tetrahydro-2H-benzo[c]azepin-2-yl)-2,6-dimethylphenyl)-3,3-dimethylbutanamide] | > 100%
Cc1cc(N2CCNc3cc(F)ccc3C2)cc(C)c1NC(=O)CC(C)(C)C [Compound 023, N-(4-(8-fluoro-1,2,3,5-tetrahydro-4H-benzo[e][1,4]diazepin-4-yl)-2,6-dimethylphenyl)-3,3-dimethylbutanamide] | > 100%
Cc1cc(N2CCC3(CC3)c3cc(F)ccc3C2)cc(C)c1NC(=O)CC(C)(C)C [Compound 022, N-(4-(7-fluoro-3,4-dihydrospiro[benzo[c]azepine-5,1′-cyclopropan]-2(1H)-yl)-2,6-dimethylphenyl)-3,3-dimethylbutanamide] | 50 to 100%
Cc1cc(N2CCCc3cc(S(C)(=O)=O)ccc3C2)cc(C)c1NC(=O)CC(C)(C)C [Compound 015, N-(2,6-dimethyl-4-(7-(methylsulfonyl)-1,3,4,5-tetrahydro-2H-benzo[c]azepin-2-yl)phenyl)-3,3-dimethylbutanamide] | > 100%
Cc1c(NC(=O)CC(C)(C)C)ccc(N2CCCc3cc(F)ccc3C2)c1F [Compound 029, N-(3-fluoro-4-(7-fluoro-1,3,4,5-tetrahydro-2H-benzo[c]azepin-2-yl)-2-methylphenyl)-3,3-dimethylbutanamide] | 50 to 100%
Cc1cc(N2CCCc3cc(OCC(F)(F)C(F)F)ccc3C2)cc(C)c1NC(=O)CC(C)(C)C [Compound 057, N-(2,6-dimethyl-4-(7-(2,2,3,3-tetrafluoropropoxy)-1,3,4,5-tetrahydro-2H-benzo[c]azepin-2-yl)phenyl)-3,3-dimethylbutanamide] | > 100%
CC[C@H](C)Oc1cc2c(cc1F)CN(c1cc(C)c(NC(=O)CC(C)(C)C)c(C)c1)CCC2 [Compound 040, (S)—N-(4-(7-(sec-butoxy)-8-fluoro-1,3,4,5-tetrahydro-2H-benzo[c]azepin-2-yl)-2,6-dimethylphenyl)-3,3-dimethylbutanamide] | > 100%
Cc1cc(N2CCCc3cc(OCC(F)(F)F)ccc3C2)cc(C)c1NC(=O)CC(C)(C)C [Compound 007, N-(2,6-dimethyl-4-(7-(2,2,2-trifluoroethoxy)-1,3,4,5-tetrahydro-2H-benzo[c]azepin-2-yl)phenyl)-3,3-dimethylbutanamide] | > 100%
